One assay addresses T1, endogenous NAMPT (Homo sapiens, UniProt P43490).
T1 construct: stimulate the endogenous NAMPT in a native cellular environment; endogenous in cells; host or cells: SH-SY5Y neuroblastoma cells
In words: Cellular NAD+ modulation assay in SH-SY5Y cells. The following applies: 40 hours. The assay is classed as cell-based. As to the method: The compounds described herein were also assayed for their ability to stimulate the endogenous NAMPT in a native cellular environment in the cellular NAD+ modulation assay, which measures the ability of the compound to modulate cellular NAD levels. Increased levels of NAD are expected by compounds that permeate the cells and activate the catalytic activity of the endogenous NAMPT.
Neuroblastoma SH-SY5Y cells were grown in 1:1 mixture of Eagle's Minimum Essential Medium and F12 Medium, along with 10% fetal bovine serum, in a humidified incubator with an atmosphere of 95% air and 5% C02 at 37° C. The assays were initiated by plating 20 μL of SH-SY5Y cells in culture medium with 0.1% fetal bovine serum, at a density of 5000 cells per well to a 384-well Corning™ BioCoat™ Poly-D-Lysine Multiwell Plates. The plates were incubated in the 37° C. incubators for a period of 5 hours. Compounds in DMSO were added to the plates in a volume of 120 nL using the Labcyte Echo Liquid Handlers. 5 μL of a 1.5 uM Doxorubicin solution in assay medium is added to each well. The plates are then incubated for 40 hours. 30 μL of a readout-solution containing 0.2 U/mL Diaphorase enzyme, 40 uM resazurin, 10 uM FMN, 0.8 U/mL Alcohol dehydrogenase, 3% ethanol, 0.4 mg/mL bovine serum albumin, 0.2% Triton X-100 in 100 mM Tris-HCl, 30 mM EDTA, pH 8.4. The plates were read for fluorescence (Excitation/Emission=540 nm/590 nm) using an EnVision plate reader after 60 mins of incubation at ambient temperature.

Another assay concerns the target human NAMPT (Homo sapiens, UniProt P43490). In words: Human recombinant enzyme assay (NMN fluorescence biochemical assay). As to the method:
Compounds described herein were assayed for their ability to stimulate the synthesis of nicotinamide mononucleotide (NMN) by the enzyme NAMPT. The human recombinant enzyme assay measures the activation of the enzyme activity by compounds using recombinant enzyme and substrates in a buffered cell-free system. The assay conditions closely mimic cellular environments. Dose responses were measured using an assay to detect the formation of nicotinamide mono-nucleotide. All experiments were performed in the 384-well format. Generally, 0.5 μL of DMSO containing varying concentrations of the test compound was mixed with 10 μL of the enzyme reagent solution. Enzyme reactions were initiated with the addition of 10 μL of a solution containing the substrates. The final assay conditions were as follows: 6 nM human NAMPT, 2.5 mM ATP, 20 μM PRPP and 150 μM nicotinamide in 50 mM HEPES, pH 7.2, 1 mM DTT, 1 mM CHAPS 50 mM NaCl, 100 mM MgCl2. Following an incubation of 60 min at ambient temperature, 10 μL of 20% acetophenone in DMSO was added, followed by 10 μL of 2 M KOH and 40 μL of formic acid. The plates were read for fluorescence (Excitation/Emission=355 nm/460 nm) using an EnVision plate reader after 40 mins of incubation at ambient temperature.

[1] abbreviates: recombinant human NAMPT, NMN fluorescence, 60 min.
The mark [2] stands for this setting: doxorubicin added, cellular NAD readout.
The mark [3] stands for this setting: 6 nM human NAMPT, 60 min, NMN formation by fluorescence.

Molecules are shown by their SMILES.

T1 sequence (P43490 whole entry): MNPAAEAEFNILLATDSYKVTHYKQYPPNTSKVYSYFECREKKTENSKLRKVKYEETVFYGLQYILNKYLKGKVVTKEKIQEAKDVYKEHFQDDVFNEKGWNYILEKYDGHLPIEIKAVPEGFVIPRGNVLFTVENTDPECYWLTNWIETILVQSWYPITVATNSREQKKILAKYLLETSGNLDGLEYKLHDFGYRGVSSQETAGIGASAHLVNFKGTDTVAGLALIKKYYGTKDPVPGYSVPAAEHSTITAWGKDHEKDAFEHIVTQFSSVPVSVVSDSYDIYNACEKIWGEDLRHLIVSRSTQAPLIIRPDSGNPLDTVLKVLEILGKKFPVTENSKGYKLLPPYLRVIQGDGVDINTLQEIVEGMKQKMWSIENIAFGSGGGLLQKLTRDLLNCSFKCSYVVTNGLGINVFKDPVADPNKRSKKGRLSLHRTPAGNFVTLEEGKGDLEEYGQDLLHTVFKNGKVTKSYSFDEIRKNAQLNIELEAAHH
human NAMPT, sequence (P43490 whole entry): as above

In the case of `CC(C)(O)CN1CCN(Cc2ccc(NC(=O)NCc3ccccc3)cc2)CC1` [Comparator A, reference compound], the EC50 came out at 2.3 µM at endogenous NAMPT (doxorubicin) and 10.6 µM at human NAMPT (setting [1]). The “potency relative to compounds with a halo or methoxy substituent at the R^1 position, as measured by AC1.4” value on human NAMPT (comparison of AC1.4 values) is listed as “five to ten times less potent”.

As to `CC(C)(O)CN1CCN(Cc2ccc(NC(=O)NCc3ccncc3)cc2)CC1` [Comparator B, reference compound], the EC50 on endogenous NAMPT (doxorubicin) is more than 20.1 µM; at human NAMPT (setting [1]), 19.7 µM.

For the compound `CC(C)(O)CN1CCN(Cc2ccc(NC(=O)NCc3cn[nH]c3)cc2)CC1` [Comparator C, reference compound], the concentration giving a half-maximal response (EC50) at endogenous NAMPT (doxorubicin) is more than 20.1 µM; at human NAMPT (setting [1]), 35.1 µM.

For `CC(C)(O)CN1CCN(Cc2ccc(NC(=O)NCc3cnco3)cc2)CC1` [Comparator D, reference compound], the EC50 was more than 20.1 µM at endogenous NAMPT (doxorubicin) and 36.5 µM at human NAMPT (setting [1]).

On to `CC(C)(O)CN1CCN(Cc2ccc(NC(=O)NCc3ccc(Cl)cc3)cc2)CC1` [Compound 36, {[(4-chlorophenyl)methyl]amino}-N-(4-{[4-(2-hydroxy-2-methylpropyl)piperazinyl]methyl}phenyl)carboxamide], for which, at endogenous NAMPT (setting [2]), the AC0.3 came to 0.15 µM and the AC0.3 designation result is given as “A (AC0.3 values that are less than 0.5 μM)”. This compound registered an EC50 on endogenous NAMPT (doxorubicin) of 0.16 µM. The “AC1.4 (the concentration of compounds that generates 40% higher activity over basal)” value on human NAMPT (setting [3]) came out at 0.15 µM. For the same compound, the EC50 on human NAMPT (setting [1]) was 3.1 µM.

Turning to `C[C@H](NCc1ccccc1)c1ccc(NC(=O)NCc2ccc(Cl)cc2)cc1` [Compound 40, [(4-{(1S)-1-[benzylamino]ethyl}phenyl)amino]-N-[(4-chlorophenyl)methyl]carboxamide], on endogenous NAMPT (doxorubicin, class symbols), the AC0.3 result is listed as “C (AC0.3 values that are greater than 2.5 μM)”. Besides, the “AC1.4 Human” value at human NAMPT (recombinant human NAMPT, NMN fluorescence, 60 min, class symbols) is “A (AC1.4 values that are less than 0.5 μM)”.

`CC(C)(O)CN1CCN(Cc2ccc(NC(=O)NCc3ccc(F)cc3)cc2)CC1` [Compound 167, {[(4-fluorophenyl)methyl]amino}-N-(4-{[4-(2-hydroxy-2-methylpropyl)piperazinyl]methyl}phenyl)carboxamide]: at endogenous NAMPT (setting [2]), the AC0.3 was determined as 1.2 µM. This compound also gave an EC50 on endogenous NAMPT (doxorubicin) of 1.4 µM. For the same compound, on human NAMPT (setting [3]), the “AC1.4 (the concentration of compounds that generates 40% higher activity over basal)” value stood at 0.78 µM; the AC1.4 designation result was “B (AC1.4 values that are between 0.5 μM and 2.5 μM)”. Also, the EC50 on human NAMPT (setting [1]) was 7.5 µM.

For `COc1ccc(CNC(=O)Nc2ccc(CN3CCN(CC(C)(C)O)CC3)cc2)cc1` [Compound 242, 1-(4-((4-(2-hydroxy-2-methylpropyl)piperazin-1-yl)methyl)phenyl)-3-(4-methoxybenzyl)urea], the AC0.3 at endogenous NAMPT (setting [2]) turned out to be 0.86 µM. The figures for the EC50 on endogenous NAMPT (doxorubicin) and on human NAMPT (setting [1]) were 0.79 µM and 10.6 µM, respectively. Also, the “AC1.4 (the concentration of compounds that generates 40% higher activity over basal)” value at human NAMPT (setting [3]) was found to be 0.42 µM.

As a reminder, the EC50 is the concentration giving half of the maximal effect.

(Values after US20230133132A1, “NAMPT MODULATORS” (Cytokinetics, Inc., priority 2020, published 2023).)
